Results published in PMC3950855 (British Journal of Cancer, 2014).
“And” between values parts separate entries of the source, which are not always exact repeats. Equal entries are not always repeated.

Experiments:
[1] = 20 mg thrice weekly; ref Fukutomi et al (2012); cited from earlier work
CYP2D6 = conditions: ref Hamberg et al, 2011; Filppula et al, 2012; cited from earlier work
[2] = Phase I trial safety: adverse events; format: in vivo, human
[3] = tested on: histone H3 acetylation in PBMNC; experiment: Acetylation of histone H3 in PBMNC of study patients; format: in vivo, human; conditions: dose level 1, three patients
PBMNC = format: cell-based, human; conditions: ex vivo incubation for 8 h
[4] = tested on: GIST-T1 (exon 11-mutant) cells; experiment: GIST-T1 cells immunoblot; format: cell-based
[5] = Plasma pharmacokinetics by LC/PDA; conditions: human, in vivo, im, Panobinostat Cmax (mean), 20 mg
[6] = both dose levels + IM 400 mg, 12 patients
[7] = panobinostat + IM 400 mg, 12 patients
[8] = Pan 50 nm for 8 h, then withdrawal

Compound: Cc1[nH]c2ccccc2c1CCNCc1ccc(/C=C/C(=O)NO)cc1 [panobinostat, Panobinostat]
- Cmax plasma level, panobinostat monotherapy [1]: 10 ng /ml^−1
- CYP2D6 inhibition (CYP2D6): weak inhibitor
- Anaemia, % of patients [2, 6]: 42% and 41.7%
- Anaemia, No. of patients Total [2, 6]: 5
- Chills, % of patients [2, 6]: 16.7%
- Chills, No. of patients Total [2, 6]: 2
- Constipation, % of patients [2, 6]: 16.7%
- Constipation, No. of patients Total [2, 6]: 2
- Creatinine, % of patients [2, 6]: 58% and 58.3%
- Creatinine, No. of patients Total [2, 6]: 7
- Diarrhoea, % of patients [2, 6]: 42% and 41.7%
- Diarrhoea, No. of patients Total [2, 6]: 5
- Dizziness, % of patients [2, 6]: 25.0%
- Dizziness, No. of patients Total [2, 6]: 3
- Dry mouth, % of patients [2, 6]: 16.7%
- Dry mouth, No. of patients Total [2, 6]: 2
- Dry skin, % of patients [2, 6]: 16.7%
- Dry skin, No. of patients Total [2, 6]: 2
- Dysgeusia, % of patients [2, 6]: 16.7%
- Dysgeusia, No. of patients Total [2, 6]: 2
- Dyspepsia, % of patients [2, 6]: 25.0%
- Dyspepsia, No. of patients Total [2, 6]: 3
- Fatigue, % of patients [2, 6]: 67% and 66.7%
- Fatigue, No. of patients Total [2, 6]: 8
- Headache, % of patients [2, 6]: 16.7%
- Headache, No. of patients Total [2, 6]: 2
- Hypothyroidism, % of patients [2, 6]: 25.0%
- Hypothyroidism, No. of patients Total [2, 6]: 3
- Lymphopenia, % of patients [2, 6]: 16.7%
- Lymphopenia, No. of patients Total [2, 6]: 2
- Muscle spasms, % of patients [2, 6]: 25.0%
- Muscle spasms, No. of patients Total [2, 6]: 3
- Nausea, % of patients [2, 6]: 50%
- Nausea, No. of patients Total [2, 6]: 6
- Neutropenia, % of patients [2, 6]: 16.7%
- Neutropenia, No. of patients Total [2, 6]: 2
- Oedema, % of patients [2, 6]: 25.0%
- Oedema, No. of patients Total [2, 6]: 3
- Thrombocytopenia, % of patients [2, 6]: 91.7%
- Thrombocytopenia, No. of patients Total [2, 6]: 11
- Vomiting, % of patients [2, 6]: 33% and 33.3%
- Vomiting, No. of patients Total [2, 6]: 4
- Weight loss, % of patients [2, 6]: 25.0%
- Weight loss, No. of patients Total [2, 6]: 3
- MTD (dose level) ([2]; dose level 1 = panobinostat 20 mg + IM 400 mg): dose level 1
- dose-limiting toxicity ([2]; dose level 2 (30 mg panobinostat and 400 mg IM)): severe thrombocytopenia
- Anaemia, No. of patients Grade 2 ([2]; panobinostat 20 mg + IM 400 mg): 3
- Anaemia, No. of patients Total ([2]; panobinostat 20 mg + IM 400 mg): 3
- Chills, No. of patients Grade 1 ([2]; panobinostat 20 mg + IM 400 mg): 1
- Chills, No. of patients Grade 2 ([2]; panobinostat 20 mg + IM 400 mg): 1
- Chills, No. of patients Total ([2]; panobinostat 20 mg + IM 400 mg): 2
- Constipation, No. of patients Grade 1 ([2]; panobinostat 20 mg + IM 400 mg): 1
- Constipation, No. of patients Total ([2]; panobinostat 20 mg + IM 400 mg): 1
- Creatinine, No. of patients Grade 1 ([2]; panobinostat 20 mg + IM 400 mg): 2
- Creatinine, No. of patients Grade 2 ([2]; panobinostat 20 mg + IM 400 mg): 2
- Creatinine, No. of patients Grade 3 ([2]; panobinostat 20 mg + IM 400 mg): 1
- Creatinine, No. of patients Total ([2]; panobinostat 20 mg + IM 400 mg): 5
- Diarrhoea, No. of patients Grade 1 ([2]; panobinostat 20 mg + IM 400 mg): 3
- Diarrhoea, No. of patients Grade 2 ([2]; panobinostat 20 mg + IM 400 mg): 1
- Diarrhoea, No. of patients Total ([2]; panobinostat 20 mg + IM 400 mg): 4
- Dizziness, No. of patients Grade 1 ([2]; panobinostat 20 mg + IM 400 mg): 2
- Dizziness, No. of patients Total ([2]; panobinostat 20 mg + IM 400 mg): 2
- Dry mouth, No. of patients Grade 1 ([2]; panobinostat 20 mg + IM 400 mg): 2
- Dry mouth, No. of patients Total ([2]; panobinostat 20 mg + IM 400 mg): 2
- Dry skin, No. of patients Grade 1 ([2]; panobinostat 20 mg + IM 400 mg): 1
- Dry skin, No. of patients Total ([2]; panobinostat 20 mg + IM 400 mg): 1
- Dysgeusia, No. of patients Grade 1 ([2]; panobinostat 20 mg + IM 400 mg): 2
- Dysgeusia, No. of patients Total ([2]; panobinostat 20 mg + IM 400 mg): 2
- Dyspepsia, No. of patients Grade 1 ([2]; panobinostat 20 mg + IM 400 mg): 2
- Dyspepsia, No. of patients Total ([2]; panobinostat 20 mg + IM 400 mg): 2
- Fatigue, No. of patients Grade 1 ([2]; panobinostat 20 mg + IM 400 mg): 3
- Fatigue, No. of patients Grade 2 ([2]; panobinostat 20 mg + IM 400 mg): 3
- Fatigue, No. of patients Total ([2]; panobinostat 20 mg + IM 400 mg): 6
- Headache, No. of patients Grade 1 ([2]; panobinostat 20 mg + IM 400 mg): 1
- Headache, No. of patients Total ([2]; panobinostat 20 mg + IM 400 mg): 1
- Hypothyroidism, No. of patients Grade 1 ([2]; panobinostat 20 mg + IM 400 mg): 3
- Hypothyroidism, No. of patients Total ([2]; panobinostat 20 mg + IM 400 mg): 3
- Lymphopenia, No. of patients Grade 3 ([2]; panobinostat 20 mg + IM 400 mg): 1
- Lymphopenia, No. of patients Total ([2]; panobinostat 20 mg + IM 400 mg): 1
- Muscle spasms, No. of patients Grade 1 ([2]; panobinostat 20 mg + IM 400 mg): 1
- Muscle spasms, No. of patients Grade 2 ([2]; panobinostat 20 mg + IM 400 mg): 1
- Muscle spasms, No. of patients Total ([2]; panobinostat 20 mg + IM 400 mg): 2
- Nausea, No. of patients Grade 1 ([2]; panobinostat 20 mg + IM 400 mg): 1
- Nausea, No. of patients Grade 2 ([2]; panobinostat 20 mg + IM 400 mg): 1
- Nausea, No. of patients Total ([2]; panobinostat 20 mg + IM 400 mg): 2
- Neutropenia, No. of patients Grade 4 ([2]; panobinostat 20 mg + IM 400 mg): 1
- Neutropenia, No. of patients Total ([2]; panobinostat 20 mg + IM 400 mg): 1
- Oedema, No. of patients Grade 1 ([2]; panobinostat 20 mg + IM 400 mg): 2
- Oedema, No. of patients Total ([2]; panobinostat 20 mg + IM 400 mg): 2
- Thrombocytopenia, No. of patients Grade 1 ([2]; panobinostat 20 mg + IM 400 mg): 3
- Thrombocytopenia, No. of patients Grade 2 ([2]; panobinostat 20 mg + IM 400 mg): 1
- Thrombocytopenia, No. of patients Grade 3 ([2]; panobinostat 20 mg + IM 400 mg): 1
- Thrombocytopenia, No. of patients Grade 4 ([2]; panobinostat 20 mg + IM 400 mg): 1
- Thrombocytopenia, No. of patients Total ([2]; panobinostat 20 mg + IM 400 mg): 6
- Vomiting, No. of patients Grade 2 ([2]; panobinostat 20 mg + IM 400 mg): 1
- Vomiting, No. of patients Total ([2]; panobinostat 20 mg + IM 400 mg): 1
- Weight loss, No. of patients Grade 1 ([2]; panobinostat 20 mg + IM 400 mg): 1
- Weight loss, No. of patients Grade 2 ([2]; panobinostat 20 mg + IM 400 mg): 1
- Weight loss, No. of patients Total ([2]; panobinostat 20 mg + IM 400 mg): 2
- Anaemia, No. of patients Grade 2 ([2]; panobinostat 30 mg + IM 400 mg): 2
- Anaemia, No. of patients Total ([2]; panobinostat 30 mg + IM 400 mg): 2
- Chills, No. of patients Total ([2]; panobinostat 30 mg + IM 400 mg): 0
- Constipation, No. of patients Grade 1 ([2]; panobinostat 30 mg + IM 400 mg): 1
- Constipation, No. of patients Total ([2]; panobinostat 30 mg + IM 400 mg): 1
- Creatinine, No. of patients Grade 1 ([2]; panobinostat 30 mg + IM 400 mg): 1
- Creatinine, No. of patients Grade 2 ([2]; panobinostat 30 mg + IM 400 mg): 1
- Creatinine, No. of patients Total ([2]; panobinostat 30 mg + IM 400 mg): 2
- Diarrhoea, No. of patients Grade 1 ([2]; panobinostat 30 mg + IM 400 mg): 1
- Diarrhoea, No. of patients Total ([2]; panobinostat 30 mg + IM 400 mg): 1
- Dizziness, No. of patients Grade 1 ([2]; panobinostat 30 mg + IM 400 mg): 1
- Dizziness, No. of patients Total ([2]; panobinostat 30 mg + IM 400 mg): 1
- Dry mouth, No. of patients Total ([2]; panobinostat 30 mg + IM 400 mg): 0
- Dry skin, No. of patients Grade 1 ([2]; panobinostat 30 mg + IM 400 mg): 1
- Dry skin, No. of patients Total ([2]; panobinostat 30 mg + IM 400 mg): 1
- Dysgeusia, No. of patients Total ([2]; panobinostat 30 mg + IM 400 mg): 0
- Dyspepsia, No. of patients Grade 1 ([2]; panobinostat 30 mg + IM 400 mg): 1
- Dyspepsia, No. of patients Total ([2]; panobinostat 30 mg + IM 400 mg): 1
- Fatigue, No. of patients Grade 2 ([2]; panobinostat 30 mg + IM 400 mg): 2
- Fatigue, No. of patients Total ([2]; panobinostat 30 mg + IM 400 mg): 2
- Headache, No. of patients Grade 2 ([2]; panobinostat 30 mg + IM 400 mg): 1
- Headache, No. of patients Total ([2]; panobinostat 30 mg + IM 400 mg): 1
- Hypothyroidism, No. of patients Total ([2]; panobinostat 30 mg + IM 400 mg): 0
- Lymphopenia, No. of patients Grade 2 ([2]; panobinostat 30 mg + IM 400 mg): 1
- Lymphopenia, No. of patients Total ([2]; panobinostat 30 mg + IM 400 mg): 1
- Muscle spasms, No. of patients Grade 2 ([2]; panobinostat 30 mg + IM 400 mg): 1
- Muscle spasms, No. of patients Total ([2]; panobinostat 30 mg + IM 400 mg): 1
- Nausea, No. of patients Grade 1 ([2]; panobinostat 30 mg + IM 400 mg): 1
- Nausea, No. of patients Grade 2 ([2]; panobinostat 30 mg + IM 400 mg): 2
- Nausea, No. of patients Grade 3 ([2]; panobinostat 30 mg + IM 400 mg): 1
- Nausea, No. of patients Total ([2]; panobinostat 30 mg + IM 400 mg): 4
- Neutropenia, No. of patients Grade 2 ([2]; panobinostat 30 mg + IM 400 mg): 1
- Neutropenia, No. of patients Total ([2]; panobinostat 30 mg + IM 400 mg): 1
- Oedema, No. of patients Grade 1 ([2]; panobinostat 30 mg + IM 400 mg): 1
- Oedema, No. of patients Total ([2]; panobinostat 30 mg + IM 400 mg): 1
- Thrombocytopenia, No. of patients Grade 3 ([2]; panobinostat 30 mg + IM 400 mg): 3
- Thrombocytopenia, No. of patients Grade 4 ([2]; panobinostat 30 mg + IM 400 mg): 2
- Thrombocytopenia, No. of patients Total ([2]; panobinostat 30 mg + IM 400 mg): 5
- Vomiting, No. of patients Grade 1 ([2]; panobinostat 30 mg + IM 400 mg): 2
- Vomiting, No. of patients Grade 2 ([2]; panobinostat 30 mg + IM 400 mg): 1
- Vomiting, No. of patients Total ([2]; panobinostat 30 mg + IM 400 mg): 3
- Weight loss, No. of patients Grade 2 ([2]; panobinostat 30 mg + IM 400 mg): 1
- Weight loss, No. of patients Total ([2]; panobinostat 30 mg + IM 400 mg): 1
- Grade 3 and 4 toxicities clearly attributable to study treatments ([2]; panobinostat + IM 400 mg): thrombocytopenia, neutropenia and nausea
- severe hepatotoxicity ([2]; panobinostat + IM 400 mg): did not occur
- patients with at least one adverse event [2, 7]: All patients
- treatment-related deaths [2, 7]: no treatment-related deaths
- time H3 acetylation was maintained in PBMNCs [3]: 24 h
- concentration at which H3 acetylation became detectable (PBMNC): ≥ 5 ng/mL
- effect of continuous panobinostat treatment for 32 h [4]: reactivation of KIT phosphorylation
- persistence of H3 acetylation after removal of panobinostat [4, 8]: 8 h
- time to complete disappearance of H3 acetylation after removal [4, 8]: ≤ 24 h
- Cmax ([5]; D1, with IM 400 mg): 36.1 nM
- Cmax ([5]; D8, with IM 400 mg): 47.5 nM
- Cmax ([5]; D15, with IM 400 mg): 44.6 nM
